# Reference: patent EP0411503B1, “Process for identifying and synthesizing binding sites of interacting proteins” (priority 1989, dated 1999)
# Where no end group is shown, it is not given here.
# Target: peptide HIV-1 gp120
# Assay: Affinity HPLC of CD4 peptide on immobilized HIV-1 gp120 peptide
# Assay type: binding
# Source text: The existence of an interaction ability among complementary peptides was verified by affinity HPLC (G. Fassina and I. M. Chaiken, Advances in Chromatogr. 27:250, 1987).
# The peptide HIV-1 gp120 was immobilized on a solid support (Eupergit^R C 30n, 800 µmoles/g load capability by controlled density) according to the conditions reported in literature (G. Fassina et al., J. Chromatogr. 376:87, 1986) and an HPLC glass column (80∗ 6.6 mm ID) was loaded with the peptide derivatized support to prepare an affinity column. The total amount of immobilized peptide in the column is 260 µg, as checked from the amino acid analysis of the support. Small amounts (1-10 µg) of CD4 peptide were eluted isochrathically on the column equilibrated by a flow rate of 1.0 ml/min with 0.1 M NH4Ac, pH 5.7.
# The eluted solution was analysed by monitoring the optic absorbance.
# The extension of the delay on column, which indicates the interaction between the peptides, was correlated to the dissociation constant Km/p of the binding according to the equation: 1/(V-Vo ) = Km/p /MT +[P]T /MT [formula] where V is the elution volume of the eluted peptide, Vo is void volume of the column, MT is the total immobilized peptide, [P]T is the eluted peptide, and Km/p is the dissociation constant of the binding. […]
Substance,"Kd (immobilized HIV-1 gp120 peptide, 0.1 M NH4Ac, pH 5.7, extrapolation at concentration zero of peptide, read-out: dissociation constant) [µM]",binding in competitive binding assay (1 mM of HIV-1 gp120 added to the buffer)
"GPSKLNDRADS [peptide CD4, NH2-GPSKLNDRADSCOOH]",80,
NH2-APPISGOIRSS-COOH [HIV-1 gp120],,completely inhibited
